From patent publication US4346089A, “1-Aza-4-oxa-bicyclo [4,4,0]decane derivatives” (Beecham Group Limited, priority 1980, dated 1982)
Where two headings read alike, the source gives them in different places.

How the values were obtained:
Assay type in all cases: in vivo
[1] = test system: apomorphine induced climbing; assay: Inhibition of apomorphine induced climbing in the mouse; settings: apomorphine 1 mg/kg s.c.; for ED50: Mus musculus, sc, scored at 10, 20 and 30 minutes, read-out: Dose mg/kg ED50 (dose that inhibits the apomorphine response by 50%)
Procedure: Compounds were also tested for their ability to inhibit apomorphine induced climbing in the mouse. Inactivity in this test may be indicative of a low propensity to produce extra-pyramidal side-effects in man.
The method used for this test is as set out below:
Inhibition of apomorphine induced climbing in the mouse
The test is based on that described by Protais, P., Constantin, J. and Schwartz, J. C. (1976), Psychopharmacology, 50, 1-6.
Apomorphine 1 mg/kg s.c. induces mice to climb the wall of a wire cage (inverted food hopper--11×7.5×18 cm high). Mice acclimatised in their home cages in groups of 5 are placed under the hoppers immediately after the injection of apomorphine 1 mg/kg s.c. At 10, 20 and 30 minutes after injection climbing behaviour is scored. The mice are observed for 30 seconds and scored according to the position in which they spend the majority of time, score 0--four paws on floor of cage; score 1--fore paws only on walls; score 2--all paws on wall of cage.
The scores at all 3 times for each mouse are summed for apomorphine only and for apomorphine plus compound groups of mice.
Total scores are then calculated as the percentage inhibition of climbing as follows: [formula]
From graphical representation of the results ED50 values (the dose that inhibits the apomorphine response by 50%) are then obtained.

intragastric pressure [2] = assay: Increase in intragastric pressure in the rat (gastric activity); settings: conscious starved rats, oral, read-out: minimum dose for activity (increase in intragastric pressure), Dose mg/kg Orally
intragastric pressure [3] = assay: as above; settings: sc, 40 min, conscious starved rats, subcutaneous, 40 minute period after administration, read-out: minimum dose for activity (increase in intragastric pressure), Dose mg/kg Subcutaneously
Procedure: Increase in intragastric pressure in the rat
Intragastric pressure changes were recorded from previously starved conscious but retrained rats using a saline filled catheter inserted into the lumen of the stomach via a permanent gastric fistula. The catheter was connected to a physiological pressure transducer and pressure changes recorded on a hot wire pen recorder. In each animal pre-dose period of 40 minutes was allowed to obtain a measure of spontaneous activity. An index of activity was obtained by measuring the average height of pressure waves during 10 minute periods. Values for 4 such periods were obtained during assessment of spontaneous activity and for the 40 minute period after the subcutaneous administration of the compounds. Students `t` test was applied to the difference in average values obtained for spontaneous and post-compound activity.

Row | Structure (SMILES) | ED50 ([1]; route of compound not given) [mg/kg] | minimal effective dose (intragastric pressure [2]) [mg/kg] | minimal effective dose (intragastric pressure [3]) [mg/kg] | Dose mg/kg ED50: Ia at stated dose (inhibition of apomorphine induced climbing) ([1]; at 10 mg/kg po) | Dose mg/kg ED50: Ia at stated dose (inhibition of apomorphine induced climbing) ([1]; at 25 mg/kg, route of compound not given)
1 | COc1cc(N)c(Cl)cc1C(=O)N[C@H]1CCN2CCOC[C@@H]2C1 (relative stereo) [Example 2, (±) 4-Amino-5-chloro-2-methoxy-N-(8α-1-aza-6α-H-4-oxabicyclo [4,4,0]decyl)benzamide] | 70 | 0.5 | 0.5 |  | 
2 | COc1cc(N)c(Cl)cc1C(=O)N[C@@H]1CCN2[C@H](COC[C@H]2c2ccccc2)C1 (relative stereo) [Example 14, (±) 4-Amino-5-chloro-2-methoxy-N-(8β-1-aza-2β-phenyl-6α-H-4-oxabicyclo[4,4,0]decyl)benzamide monohydrate] |  |  | 1 | Ia at 10 po | 
3 | COc1cc(N)c(Cl)cc1C(=O)N[C@H]1CCN2[C@H](COC[C@H]2c2ccccc2)C1 (relative stereo) [Example 12, (±) 4-Amino-5-chloro-2-methoxy-N-(8α-1-aza-2β-phenyl-6α-H-4-oxabicyclo[4,4,0]decyl)benzamide] | 30 |  |  |  | 
4 | COc1cc(N)c(Cl)cc1C(=O)N[C@H]1CCN2CCSC[C@@H]2C1 (relative stereo) [Example 8, (±) 4-Amino-5-chloro-2-methoxy-N-(8α-1-aza-6α-H-4-thiabicyclo [4,4 ,0]decyl)benzamide] |  |  | 5 |  | Ia at 25
5 | COc1cc(N)c(Cl)cc1C(=O)N[C@H]1CCN2[C@H](COC[C@H]2C)C1 (relative stereo) [Example 6, (±) 4-Amino-5-chloro-2-methoxy-N-(8α-1-aza-2β-methyl-6α-H-4-oxabicyclo[4,4,0]decyl)benzamide] | 40 | 0.5 | 0.2 |  | 
6 | COc1cc(N)c(Cl)cc1C(=O)N[C@H]1CCN2CCOC[C@H]2C1 (relative stereo) [Example 4, (±) 4-Amino-5-chloro-2-methoxy-N-(8β-1-aza-6α-H-4-oxabicyclo [4,4,0]delcyl)benzamide] | 30 |  | 1 |  | 
7 | COc1cc(N)c(Cl)cc1C(=O)N[C@H]1CCN2CCSC[C@H]2C1 (relative stereo) [Example 10, (±) 4-Amino-5-chloro-2-methoxy-N-(8β-aza-6α-H-4-thiabicyclo [4,4,0]decyl)benzamide] |  |  | 1 |  | 
8 | COc1cc(N)c(Cl)cc1C(=O)N[C@H]1CCN2CC[S+]([O-])C[C@H]2C1 (mixture of isomers) [Example 18, (±) 4-Amino-5-chloro-2-methoxy-N-(8β-1-aza-6α-H-4-oxothiabicyclo[4,4,0]decyl)benzamide] |  |  | 1 |  | 
9 | COc1cc(N)c(Cl)cc1C(=O)NC1CCN2CC[S+]([O-])CC2C1 (racemic) [Example 16, (±) 4-Amino-5-chloro-2-methoxy-N-(8α,β-1-aza-6α-H-4-oxothiabicyclo[4,4,0]decyl)benzamide] |  |  | 5 | Ia at 10 po | 
